Test results as given in PubChem BioAssay (NCI).
Values joined by “and” are separate entries in the source; they are usually repeats but may differ in a detail not shown here. Identical values can stand only once.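 Where inhibition never reached the appropriate level, the endpoint shown equals the highest concentration tested. Otherwise, values were interpolated linearly from a five-concentration, 48-hour dose response in 96-well plates. GI50 is the concentration that inhibits growth by half. TGI denotes the concentration required for complete inhibition of growth.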

Tests used:
Experiment in all cases: NCI-60 cell line screen, 48 h
SNB-75 CNS = system: SNB-75 CNS
RXF-631 renal = system: RXF-631 renal
NCI-H226 lung = system: NCI-H226 lung
KM12 colon = system: KM12 colon
HCC-2998 colon = system: HCC-2998 colon
DMS 273 small cell lung = system: DMS 273 small cell lung
786-0 renal = system: 786-0 renal
NCI-H460 lung = system: NCI-H460 lung
K-562 leukemia = system: K-562 leukemia
LXFL 529 NSCLC = system: LXFL 529 NSCLC
HCT-15 colon = system: HCT-15 colon
UACC-62 melanoma = system: UACC-62 melanoma
M14 melanoma = system: M14 melanoma
SF-268 CNS = system: SF-268 CNS
UO-31 renal = system: UO-31 renal
MALME-3M melanoma = system: MALME-3M melanoma
HT29 colon = system: HT29 colon
SK-MEL-28 melanoma = system: SK-MEL-28 melanoma
U251 CNS = system: U251 CNS
A549 NSCLC = system: A549 NSCLC
HCT-116 colon = system: HCT-116 colon
OVCAR-5 ovarian = system: OVCAR-5 ovarian
SR leukemia = system: SR leukemia
OVCAR-8 ovarian = system: OVCAR-8 ovarian
OVCAR-4 ovarian = system: OVCAR-4 ovarian
SNB-78 CNS = system: SNB-78 CNS
KM20L2 colon = system: KM20L2 colon
XF 498 CNS = system: XF 498 CNS
IGROV1 ovarian = system: IGROV1 ovarian
SN12C renal = system: SN12C renal
LOX IMVI melanoma = system: LOX IMVI melanoma
COLO 205 colon = system: COLO 205 colon
SK-OV-3 ovarian = system: SK-OV-3 ovarian
RXF 393 renal = system: RXF 393 renal
SF-539 CNS = system: SF-539 CNS
NCI-H522 lung = system: NCI-H522 lung
SNB-19 CNS = system: SNB-19 CNS
HOP-92 NSCLC = system: HOP-92 NSCLC
UACC-257 melanoma = system: UACC-257 melanoma
HOP-62 NSCLC = system: HOP-62 NSCLC
DLD-1 colon = system: DLD-1 colon
OVCAR-3 ovarian = system: OVCAR-3 ovarian
M19-MEL melanoma = system: M19-MEL melanoma
TK-10 renal = system: TK-10 renal
MOLT-4 leukemia = system: MOLT-4 leukemia
NCI-H23 lung = system: NCI-H23 lung
CAKI-1 renal = system: CAKI-1 renal
HL-60(TB) leukemia = system: HL-60(TB) leukemia
SW-620 colon = system: SW-620 colon
SF-295 CNS = system: SF-295 CNS
ACHN renal = system: ACHN renal
RPMI-8226 leukemia = system: RPMI-8226 leukemia
DMS 114 small cell lung = system: DMS 114 small cell lung
CCRF-CEM leukemia = system: CCRF-CEM leukemia
A498 renal = system: A498 renal
SK-MEL-2 melanoma = system: SK-MEL-2 melanoma
SK-MEL-5 melanoma = system: SK-MEL-5 melanoma
EKVX NSCLC = system: EKVX NSCLC

`NC(=S)N/N=C(\CC1OC(=O)c2ccccc21)c1ccc(Cl)cc1` (centres undefined) showed a TGI (SNB-75 CNS) of over 100 µM, a TGI (RXF-631 renal) of 74.1 µM and a TGI (NCI-H226 lung) of 53.3 µM. For the same molecule, the TGI (KM12 colon) was 52 µM, the TGI (HCC-2998 colon) was 48.6 µM and the TGI (DMS 273 small cell lung) was over 100 µM. For the same molecule, the TGI (786-0 renal) was over 100 µM, the TGI (NCI-H460 lung) was over 100 µM and the TGI (K-562 leukemia) was over 100 µM. It also gave a TGI (LXFL 529 NSCLC) of over 100 µM, a TGI (HCT-15 colon) of over 100 µM and a TGI (UACC-62 melanoma) of 47.2 µM. It also gave a TGI (M14 melanoma) of over 100 µM, a TGI (SF-268 CNS) of over 100 µM and a TGI (UO-31 renal) of 84.9 µM. The TGI (MALME-3M melanoma) was over 100 µM, the TGI (HT29 colon) was 65.9 µM and the TGI (SK-MEL-28 melanoma) was over 100 µM. It also gave a TGI (U251 CNS) of 73.6 µM, a TGI (A549 NSCLC) of over 100 µM and a TGI (HCT-116 colon) of 54.9 µM. It also gave a TGI (OVCAR-5 ovarian) of over 100 µM, a TGI (SR leukemia) of over 100 µM and a TGI (OVCAR-8 ovarian) of 35.6 µM. It also gave a TGI (OVCAR-4 ovarian) of 99 µM, a TGI (SNB-78 CNS) of over 100 µM and a TGI (KM20L2 colon) of over 100 µM. For the same molecule, the TGI (XF 498 CNS) was over 100 µM, the TGI (IGROV1 ovarian) was over 100 µM and the TGI (SN12C renal) was over 100 µM. The TGI (LOX IMVI melanoma) was 62.8 µM, the TGI (COLO 205 colon) was 98.8 µM and the TGI (SK-OV-3 ovarian) was over 100 µM. It also gave a TGI (RXF 393 renal) of 49 µM, a TGI (SF-539 CNS) of 44.9 µM and a TGI (NCI-H522 lung) of 63.8 µM. The TGI (SNB-19 CNS) was over 100 µM, the TGI (HOP-92 NSCLC) was 91.7 µM and the TGI (UACC-257 melanoma) was over 100 µM. For the same molecule, the TGI (HOP-62 NSCLC) was 46 µM, the TGI (DLD-1 colon) was over 100 µM and the TGI (OVCAR-3 ovarian) was over 100 µM. For the same molecule, the TGI (M19-MEL melanoma) was 66.1 µM, the TGI (TK-10 renal) was over 100 µM and the TGI (MOLT-4 leukemia) was over 100 µM. The TGI (NCI-H23 lung) was 57.7 µM, the TGI (CAKI-1 renal) was 99.2 µM and the TGI (HL-60(TB) leukemia) was over 100 µM. It also gave a TGI (SW-620 colon) of over 100 µM, a TGI (SF-295 CNS) of over 100 µM and a TGI (ACHN renal) of over 100 µM. For the same molecule, the TGI (RPMI-8226 leukemia) was over 100 µM and the TGI (DMS 114 small cell lung) was 75 µM.
In the case of `CC(C)SC1CC2C(CC1(C)O)C2(C)C` (centres undefined), the GI50 (HL-60(TB) leukemia) is reported as 53.4 µM and 9.68 µM, the TGI (HL-60(TB) leukemia) is reported as over 100 µM and the GI50 (DMS 114 small cell lung) is reported as 89.7 µM and 18.7 µM. The TGI (DMS 114 small cell lung) was over 100 µM.
Work on `CCN(CC)CCCN1CCc2c([nH]c3ccccc23)C1c1cccnc1` (centres undefined) yielded a TGI (SNB-75 CNS) of over 100 µM, a TGI (RXF-631 renal) of over 100 µM and a TGI (NCI-H226 lung) of over 100 µM. It also gave a TGI (KM12 colon) of over 100 µM, a TGI (HCC-2998 colon) of over 100 µM and a TGI (DMS 273 small cell lung) of over 100 µM. The TGI (786-0 renal) was over 100 µM, the TGI (NCI-H460 lung) was over 100 µM and the TGI (K-562 leukemia) was over 100 µM. For the same molecule, the TGI (LXFL 529 NSCLC) was over 100 µM, the TGI (HCT-15 colon) was over 100 µM and the TGI (UACC-62 melanoma) was over 100 µM. It also gave a TGI (M14 melanoma) of over 100 µM, a TGI (UO-31 renal) of over 100 µM and a TGI (MALME-3M melanoma) of over 100 µM. For the same molecule, the TGI (HT29 colon) was over 100 µM, the TGI (SK-MEL-28 melanoma) was over 100 µM and the TGI (U251 CNS) was over 100 µM. For the same molecule, the TGI (CCRF-CEM leukemia) was over 100 µM, the TGI (A549 NSCLC) was over 100 µM and the TGI (HCT-116 colon) was over 100 µM. It also gave a TGI (OVCAR-5 ovarian) of over 100 µM, a TGI (SR leukemia) of over 100 µM and a TGI (OVCAR-8 ovarian) of over 100 µM. For the same molecule, the TGI (A498 renal) was over 100 µM, the TGI (SK-MEL-2 melanoma) was over 100 µM and the TGI (OVCAR-4 ovarian) was over 100 µM. For the same molecule, the TGI (SNB-78 CNS) was over 100 µM, the TGI (KM20L2 colon) was over 100 µM and the TGI (XF 498 CNS) was over 100 µM. It also gave a TGI (IGROV1 ovarian) of over 100 µM, a TGI (SN12C renal) of over 100 µM and a TGI (SK-MEL-5 melanoma) of over 100 µM. The TGI (LOX IMVI melanoma) was over 100 µM, the TGI (COLO 205 colon) was over 100 µM and the TGI (SK-OV-3 ovarian) was over 100 µM. It also gave a TGI (RXF 393 renal) of over 100 µM, a TGI (SF-539 CNS) of over 100 µM and a TGI (NCI-H522 lung) of over 100 µM. It also gave a TGI (SNB-19 CNS) of over 100 µM, a TGI (HOP-92 NSCLC) of over 100 µM and a TGI (UACC-257 melanoma) of over 100 µM. The TGI (HOP-62 NSCLC) was over 100 µM, the TGI (DLD-1 colon) was over 100 µM and the TGI (OVCAR-3 ovarian) was over 100 µM. It also gave a TGI (M19-MEL melanoma) of over 100 µM, a TGI (TK-10 renal) of over 100 µM and a TGI (MOLT-4 leukemia) of over 100 µM. It also gave a TGI (NCI-H23 lung) of over 100 µM, a TGI (CAKI-1 renal) of over 100 µM and a TGI (HL-60(TB) leukemia) of over 100 µM. The TGI (SW-620 colon) was over 100 µM, the TGI (SF-295 CNS) was over 100 µM and the TGI (ACHN renal) was over 100 µM. The TGI (EKVX NSCLC) was over 100 µM, the TGI (RPMI-8226 leukemia) was over 100 µM and the TGI (DMS 114 small cell lung) was over 100 µM.
